Test results taken from ChEMBL document CHEMBL1144369, “2-Ethoxybenzoxazole as a bioisosteric replacement of an ethyl benzoate group in a human rhinovirus (HRV) capsid binder” (Bioorg Med Chem Lett, 2005).
Converted amounts (≈) assume the structure as drawn. One block for each molecule: values may come before it.

Columns and labels:
Human rhinovirus sp. [1] = assay: Effective concentration against HRV-14; type: functional, organism-based
Human rhinovirus sp. [2] = assay: Effective concentration against HRV-2; type: functional, organism-based
Human rhinovirus sp. [3] = assay: Effective concentration against HRV serotype 29 (assay was run at least six times); type: functional, organism-based
Human rhinovirus sp. [4] = assay: Effective concentration against HRV serotype 9 (assay was run at least six times); type: functional, organism-based
Human rhinovirus sp. [5] = assay: Effective concentration against HRV serotype 89 (assay was run at least six times); type: functional, organism-based
Human rhinovirus sp. [6] = assay: Effective concentration against HRV serotype 45 (assay was run for 3 times); type: functional, organism-based
Human rhinovirus sp. [7] = assay: Effective concentration against HRV serotype 2 (assay was run at least six times); type: functional, organism-based
Human rhinovirus sp. [8] = assay: Effective concentration against HRV serotype 39 (assay was run at least six times); type: functional, organism-based
Human rhinovirus sp. [9] = assay: Effective concentration against HRV serotype 15 (assay was run at least six times); type: functional, organism-based
Human rhinovirus sp. [10] = assay: Effective concentration against HRV serotype 85 (assay was run at least six times); type: functional, organism-based
Human rhinovirus sp. [11] = assay: Median effective concentration against HRV serotypes; Number of serotypes 16; type: functional, organism-based
Human rhinovirus sp. [12] = assay: Effective concentration against HRV serotype 16 (assay was run at least six times); type: functional, organism-based
Human rhinovirus sp. [13] = assay: Effective concentration against HRV serotype 59 (assay was run at least six times); type: functional, organism-based
Human rhinovirus sp. [14] = assay: Effective concentration against HRV serotype 63 (assay was run at least six times); type: functional, organism-based
Human rhinovirus sp. [15] = assay: Effective concentration against HRV serotype 72 (assay was run at least six times); type: functional, organism-based
Human rhinovirus sp. [16] = assay: Effective concentration against HRV serotype 14 (assay was run at least six times); type: functional, organism-based
Human rhinovirus sp. [17] = assay: Effective concentration against HRV serotype 86 (assay was run at least six times); type: functional, organism-based
Human rhinovirus sp. [18] = assay: Effective concentration against HRV serotype 70 (assay was run at least six times); type: functional, organism-based
Human rhinovirus sp. [19] = assay: Effective concentration against HRV serotype 51 (assay was run at least six times); type: functional, organism-based
Human rhinovirus sp. [20] = assay: Effective concentration against HRV serotype 45 (assay was run at least six times); type: functional, organism-based
Human rhinovirus sp. [21] = assay: Percent inhibition of HRV strains at a concentration of 0.064 ug/mL; no. of strains=100; type: functional
Human rhinovirus sp. [22] = assay: Effective concentration against HRV-16; type: functional, organism-based

SMILES: CCCOc1nc2ccc(OCCC3CCN(c4ccc(C)nn4)CC3)cc2s1
EC50 (Human rhinovirus sp. [1]): 0.041 µg/mL (≈ 0.0994 µM)
EC50 (Human rhinovirus sp. [2]): 0.166 µg/mL (≈ 0.402 µM)

SMILES: CCOc1nc2cc(OCCC3CCN(c4ccc(C)nn4)CC3)ccc2o1
EC50 (Human rhinovirus sp. [3]): 0.00728 µg/mL (≈ 0.019 µM)
EC50 (Human rhinovirus sp. [4]): 0.0012 µg/mL (≈ 0.00314 µM)
EC50 (Human rhinovirus sp. [5]): 0.00151 µg/mL (≈ 0.00395 µM)
EC50 (Human rhinovirus sp. [6]): > 0.25 µg/mL
EC50 (Human rhinovirus sp. [7]): 0.00116 µg/mL (≈ 0.00303 µM)
EC50 (Human rhinovirus sp. [8]): 0.00053 µg/mL (≈ 0.00139 µM)
EC50 (Human rhinovirus sp. [9]): 0.00433 µg/mL (≈ 0.0113 µM)
EC50 (Human rhinovirus sp. [10]): 0.00078 µg/mL (≈ 0.00204 µM)
EC50 (Human rhinovirus sp. [11]): 0.00388 µg/mL (≈ 0.0101 µM)
EC50 (Human rhinovirus sp. [12]): 0.00772 µg/mL (≈ 0.0202 µM)
EC50 (Human rhinovirus sp. [13]): 0.00226 µg/mL (≈ 0.00591 µM)
EC50 (Human rhinovirus sp. [14]): 0.0003 µg/mL (≈ 0.000784 µM)
EC50 (Human rhinovirus sp. [15]): 0.142 µg/mL (≈ 0.372 µM)
EC50 (Human rhinovirus sp. [16]): 0.00432 µg/mL (≈ 0.0113 µM)
EC50 (Human rhinovirus sp. [17]): 0.00874 µg/mL (≈ 0.0229 µM)
EC50 (Human rhinovirus sp. [18]): 0.0152 µg/mL (≈ 0.0398 µM)
EC50 (Human rhinovirus sp. [1]): 0.007 µg/mL (≈ 0.0183 µM)
EC50 (Human rhinovirus sp. [19]): 0.00345 µg/mL (≈ 0.00902 µM)
EC50 (Human rhinovirus sp. [2]): 0.003 µg/mL (≈ 0.00784 µM)

SMILES: CCSc1nc2ccc(OCCC3CCN(c4ccc(C)nn4)CC3)cc2o1
EC50 (Human rhinovirus sp. [1]): 0.05 µg/mL (≈ 0.125 µM)
EC50 (Human rhinovirus sp. [2]): 0.004 µg/mL (≈ 0.01 µM)

SMILES: CCSc1nc2ccc(OCCC3CCN(c4ccc(C)nn4)CC3)cc2n1C
EC50 (Human rhinovirus sp. [1]): > 0.25 µg/mL
EC50 (Human rhinovirus sp. [2]): 0.086 µg/mL (≈ 0.209 µM)

SMILES: Cc1ccc(N2CCC(CCOc3ccc4nc(C)oc4c3)CC2)nn1
EC50 (Human rhinovirus sp. [1]): > 0.5 µg/mL
EC50 (Human rhinovirus sp. [2]): > 0.5 µg/mL

SMILES: CCCOc1nc2cc(OCCC3CCN(c4ccc(C)nn4)CC3)ccc2o1
EC50 (Human rhinovirus sp. [1]): 0.02 µg/mL (≈ 0.0504 µM)
EC50 (Human rhinovirus sp. [2]): 0.002 µg/mL (≈ 0.00504 µM)

SMILES: CCOC(=O)c1ccc(OCCC2CCN(c3ccc(C)nn3)CC2)cc1 [PIRODAVIR]
EC50 (Human rhinovirus sp. [20]): > 5 µg/mL
EC50 (Human rhinovirus sp. [3]): 0.00374 µg/mL (≈ 0.0101 µM)
EC50 (Human rhinovirus sp. [4]): 0.00205 µg/mL (≈ 0.00555 µM)
EC50 (Human rhinovirus sp. [5]): 0.0057 µg/mL (≈ 0.0154 µM)
EC50 (Human rhinovirus sp. [7]): 0.00277 µg/mL (≈ 0.0075 µM)
EC50 (Human rhinovirus sp. [8]): 0.0018 µg/mL (≈ 0.00487 µM)
EC50 (Human rhinovirus sp. [9]): 0.00792 µg/mL (≈ 0.0214 µM)
EC50 (Human rhinovirus sp. [10]): 0.00472 µg/mL (≈ 0.0128 µM)
EC50 (Human rhinovirus sp. [11]): 0.00454 µg/mL (≈ 0.0123 µM)
EC50 (Human rhinovirus sp. [12]): 0.0152 µg/mL (≈ 0.0412 µM)
EC50 (Human rhinovirus sp. [13]): 0.00437 µg/mL (≈ 0.0118 µM)
EC50 (Human rhinovirus sp. [14]): 0.00083 µg/mL (≈ 0.00225 µM)
EC50 (Human rhinovirus sp. [15]): 0.0348 µg/mL (≈ 0.0941 µM)
EC50 (Human rhinovirus sp. [16]): 0.00365 µg/mL (≈ 0.00988 µM)
EC50 (Human rhinovirus sp. [17]): 0.00956 µg/mL (≈ 0.0259 µM)
EC50 (Human rhinovirus sp. [18]): 0.00214 µg/mL (≈ 0.00579 µM)
EC50 (Human rhinovirus sp. [19]): 0.00521 µg/mL (≈ 0.0141 µM)
inhibition at 0.064 µg/mL (Human rhinovirus sp. [21]): 80%

SMILES: CCOc1nc2ccc(OCCC3CCN(c4ccc(C)nn4)CC3)cc2o1
EC50 (Human rhinovirus sp. [22]): 0.023 µg/mL (≈ 0.0601 µM)
EC50 (Human rhinovirus sp. [2]): 0.045 µg/mL (≈ 0.118 µM)

SMILES: CCCCc1nc2cc(OCCC3CCN(c4ccc(C)nn4)CC3)ccc2o1
EC50 (Human rhinovirus sp. [1]): 0.082 µg/mL (≈ 0.208 µM)
EC50 (Human rhinovirus sp. [2]): 0.013 µg/mL (≈ 0.033 µM)

SMILES: Cc1cc(CCCOc2c(C)cc(-c3noc(C(F)(F)F)n3)cc2C)on1 [PLECONARIL]
EC50 (Human rhinovirus sp. [20]): 1.91 µg/mL (≈ 5 µM)
EC50 (Human rhinovirus sp. [3]): 0.0454 µg/mL (≈ 0.119 µM)
EC50 (Human rhinovirus sp. [4]): 0.0372 µg/mL (≈ 0.0974 µM)
EC50 (Human rhinovirus sp. [5]): 0.0293 µg/mL (≈ 0.0769 µM)
EC50 (Human rhinovirus sp. [7]): 0.0265 µg/mL (≈ 0.0694 µM)
EC50 (Human rhinovirus sp. [8]): 0.0449 µg/mL (≈ 0.118 µM)
EC50 (Human rhinovirus sp. [9]): 0.0698 µg/mL (≈ 0.183 µM)
EC50 (Human rhinovirus sp. [10]): 0.034 µg/mL (≈ 0.0892 µM)
EC50 (Human rhinovirus sp. [11]): 0.0496 µg/mL (≈ 0.13 µM)
EC50 (Human rhinovirus sp. [12]): 0.108 µg/mL (≈ 0.283 µM)
EC50 (Human rhinovirus sp. [13]): 0.387 µg/mL (≈ 1.02 µM)
EC50 (Human rhinovirus sp. [14]): 0.0623 µg/mL (≈ 0.163 µM)
EC50 (Human rhinovirus sp. [15]): 0.469 µg/mL (≈ 1.23 µM)
EC50 (Human rhinovirus sp. [16]): 0.0343 µg/mL (≈ 0.09 µM)
EC50 (Human rhinovirus sp. [17]): 0.07 µg/mL (≈ 0.184 µM)
EC50 (Human rhinovirus sp. [18]): 0.0539 µg/mL (≈ 0.141 µM)
EC50 (Human rhinovirus sp. [19]): 0.0304 µg/mL (≈ 0.0797 µM)

SMILES: CCSc1nc2cc(OCCC3CCN(c4ccc(C)nn4)CC3)ccc2n1C
EC50 (Human rhinovirus sp. [1]): 0.169 µg/mL (≈ 0.411 µM)
EC50 (Human rhinovirus sp. [2]): 0.102 µg/mL (≈ 0.248 µM)

SMILES: CCOc1nc2cc(OCCC3CCN(c4ccc(C)nn4)CC3)ccc2s1
EC50 (Human rhinovirus sp. [1]): 0.006 µg/mL (≈ 0.0151 µM)
EC50 (Human rhinovirus sp. [2]): 0.007 µg/mL (≈ 0.0176 µM)

SMILES: CCSc1nc2ccc(OCCC3CCN(c4ccc(C)nn4)CC3)cc2s1
EC50 (Human rhinovirus sp. [1]): 0.049 µg/mL (≈ 0.118 µM)
EC50 (Human rhinovirus sp. [2]): 0.165 µg/mL (≈ 0.398 µM)

SMILES: CCOc1nc2ccc(OCCC3CCN(c4ccc(C)nn4)CC3)cc2s1
EC50 (Human rhinovirus sp. [1]): 0.014 µg/mL (≈ 0.0351 µM)
EC50 (Human rhinovirus sp. [2]): 0.104 µg/mL (≈ 0.261 µM)

Now from value to molecule:

EC50 (Human rhinovirus sp. [1]): 0.006 µg/mL (≈ 0.0151 µM)
EC50 (Human rhinovirus sp. [2]): 0.002 µg/mL (≈ 0.00502 µM)
SMILES: CCSc1nc2cc(OCCC3CCN(c4ccc(C)nn4)CC3)ccc2o1

EC50 (Human rhinovirus sp. [1]): > 0.5 µg/mL
EC50 (Human rhinovirus sp. [2]): > 0.5 µg/mL
SMILES: Cc1ccc(N2CCC(CCOc3ccc4oc(C)nc4c3)CC2)nn1

EC50 (Human rhinovirus sp. [1]): 0.13 µg/mL (≈ 0.355 µM)
EC50 (Human rhinovirus sp. [2]): 0.144 µg/mL (≈ 0.393 µM)
SMILES: CCc1nc2cc(OCCC3CCN(c4ccc(C)nn4)CC3)ccc2o1

EC50 (Human rhinovirus sp. [1]): 0.028 µg/mL (≈ 0.0736 µM)
EC50 (Human rhinovirus sp. [2]): 0.075 µg/mL (≈ 0.197 µM)
SMILES: CCCc1nc2cc(OCCC3CCN(c4ccc(C)nn4)CC3)ccc2o1

EC50 (Human rhinovirus sp. [1]): 0.099 µg/mL (≈ 0.269 µM)
EC50 (Human rhinovirus sp. [2]): 0.159 µg/mL (≈ 0.432 µM)
SMILES: COc1nc2cc(OCCC3CCN(c4ccc(C)nn4)CC3)ccc2o1

EC50 (Human rhinovirus sp. [1]): 0.047 µg/mL (≈ 0.122 µM)
EC50 (Human rhinovirus sp. [2]): 0.099 µg/mL (≈ 0.257 µM)
SMILES: CSc1nc2cc(OCCC3CCN(c4ccc(C)nn4)CC3)ccc2o1
